Laboratory results reported in US10449175B2, “Rinse-off chemical mousse containing benzoyl peroxide” (GALDERMA RESEARCH & DEVELOPMENT, priority 2014, dated 2019).

Assay: Stability over time of foaming surfactants in formulation intermediate B with high sodium bicarbonate
Assay type: physicochemical
Settings: incorporated in formulation intermediate B, high concentration of sodium bicarbonate
Experimental: The applicant company has known how to select a foaming surfactant which is stable over time in the presence of a high concentration of sodium bicarbonate. The following surfactants were tested in the mixture: Sodium C14-C16 Olefin Sulfonate sold by Clariant under the name Hostapur® OSB or else Hostapur® OS Liq but also Nansa® LSS 495-H sold by Huntsman, Rodacal LSS 80 RPB from Rhodia, BIO-Terge® AS-90 beads from Stepan, Sodium Cocoyl Glycinate sold by Clariant under the name Hostapon® SG, Sodium Cocoyl Isethionate sold by Clariant under the name Hostapon® SCI85 G, Sodium Lauroyl Methyl Isethionate sold by Innospec under the name Iselux® LG, Decyl Glucoside sold by Cognis under the name Plantacare® 2000 Up, Zinc Coceth Sulfate sold by Zschimmer & Schwarz under the name Zetesol® Zn, Glyceryl Monolaurate sold by Rossow under the name POEM® DL 100, and Disodium PEG-5 Laurylcitrate Sulfosuccinate sold by Evonik under the name Rewopol SB C55®.

With Sodium C14-16 Olefin Sulfonate as the substance, how does the “retention of foaming and organoleptic properties (color, odor)” value read?
The value was “retained its foaming properties and its organoleptic properties”.
